These results are taken from article PMC5819854 (ACS Omega, 2017).

Read-outs that look alike come from different tables or passages of the source.

In one assay the target is human D3R (Homo sapiens, UniProt P35462). The assay is described as follows: Radioligand competition binding, human D3R. In general terms: Loss of bound radioactivity is the signal in a displacement assay; it reports binding, not function.
The target in the next assay is human μOR (Homo sapiens, UniProt P35372). In words: biochemical. It counts as binding.
human μOR, sequence (P35372 whole entry): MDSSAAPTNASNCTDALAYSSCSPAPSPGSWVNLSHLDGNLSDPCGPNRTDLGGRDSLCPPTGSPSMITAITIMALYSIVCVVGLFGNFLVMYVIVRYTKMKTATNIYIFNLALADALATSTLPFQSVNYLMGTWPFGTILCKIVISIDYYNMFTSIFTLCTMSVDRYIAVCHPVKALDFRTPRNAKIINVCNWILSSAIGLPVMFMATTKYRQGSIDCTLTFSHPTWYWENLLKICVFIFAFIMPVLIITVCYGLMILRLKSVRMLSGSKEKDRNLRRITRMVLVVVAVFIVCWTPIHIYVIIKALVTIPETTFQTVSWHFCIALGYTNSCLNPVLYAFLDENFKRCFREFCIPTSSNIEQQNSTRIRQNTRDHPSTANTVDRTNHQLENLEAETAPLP
A further assay has as its target human κOR (Homo sapiens, UniProt P41145). In words: biochemical. It counts as binding.
A further assay concerns the target human δOR (Homo sapiens, UniProt P41143). In words: biochemical. It counts as binding.

human D3R, sequence (P35462 whole entry): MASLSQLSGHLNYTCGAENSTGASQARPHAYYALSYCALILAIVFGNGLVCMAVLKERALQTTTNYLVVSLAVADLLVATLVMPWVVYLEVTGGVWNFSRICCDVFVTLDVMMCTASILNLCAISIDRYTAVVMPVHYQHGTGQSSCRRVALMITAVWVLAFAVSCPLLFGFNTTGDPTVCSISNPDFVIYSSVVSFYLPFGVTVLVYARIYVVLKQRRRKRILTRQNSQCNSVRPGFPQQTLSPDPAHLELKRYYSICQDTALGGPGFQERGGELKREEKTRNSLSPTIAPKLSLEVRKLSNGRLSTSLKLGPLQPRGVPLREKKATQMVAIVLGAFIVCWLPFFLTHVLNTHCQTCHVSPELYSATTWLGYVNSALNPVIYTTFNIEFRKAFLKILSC
human κOR, sequence (P41145 whole entry): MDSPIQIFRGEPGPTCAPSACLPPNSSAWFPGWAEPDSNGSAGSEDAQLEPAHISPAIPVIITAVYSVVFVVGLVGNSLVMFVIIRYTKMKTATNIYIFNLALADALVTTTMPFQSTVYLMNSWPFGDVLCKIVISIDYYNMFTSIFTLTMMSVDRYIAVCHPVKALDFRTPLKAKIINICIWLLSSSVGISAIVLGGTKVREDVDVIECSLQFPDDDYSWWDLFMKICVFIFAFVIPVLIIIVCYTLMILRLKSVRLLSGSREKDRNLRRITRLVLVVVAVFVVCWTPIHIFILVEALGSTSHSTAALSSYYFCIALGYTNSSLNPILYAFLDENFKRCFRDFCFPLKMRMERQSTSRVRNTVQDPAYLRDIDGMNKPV
human δOR, sequence (P41143 whole entry): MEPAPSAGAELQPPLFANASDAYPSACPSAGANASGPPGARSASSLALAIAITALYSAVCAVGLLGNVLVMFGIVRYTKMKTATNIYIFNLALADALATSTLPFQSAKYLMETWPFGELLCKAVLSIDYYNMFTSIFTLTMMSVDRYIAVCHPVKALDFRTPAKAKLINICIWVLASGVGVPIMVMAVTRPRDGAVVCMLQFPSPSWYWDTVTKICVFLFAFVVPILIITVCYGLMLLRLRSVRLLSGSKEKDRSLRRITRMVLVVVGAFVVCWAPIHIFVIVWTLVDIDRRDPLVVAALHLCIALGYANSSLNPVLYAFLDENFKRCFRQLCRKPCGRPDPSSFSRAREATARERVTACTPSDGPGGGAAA

Take “2-(4-Fluoro-2-methoxyphenyl)-N-(4-(4-(2-methoxyphenyl)piperazine-1-yl)but-1-yl)azocarboxamide [3d]”: the “affinity for the D3 receptor (in words)” value on human D3R was “single-digit”.

Regarding “2-(4-Fluorobiphen-2-yl)-N-(4-(4-(3-methoxyphenyl)piperazine-1-yl)but-1-yl)azocarboxamide [3e]”, the “affinity for the D3 receptor (in words)” value on human D3R is “sub-nanomolar”. Also, on human D3R (ratio of Ki values), the “D3 selectivity over 5-HT1A, Ki(5-HT1A/D3)” value is on record as 43. The “increase of D3 affinity compared to reference compound 3a” value at human D3R (vs ortho- and meta-unsubstituted 3a) came to 10 fold.

As for `CN(C)C1(CNC(=O)/N=N/c2ccc(F)cc2)CCCCC1` [4a, (E)-N-((1-(Dimethylamino)cyclohexyl)methyl)-2-(4-fluorophenyl)diazene-1-carboxamide], on human μOR, the affinity, expressed as Ki, was 2.5 ± 1.1 µM; the “selectivity between the κ and μ opioid receptor subtypes (in words)” value is “did not show any selectivity”. Moreover, the Ki (commonly the equilibrium dissociation constant of an inhibitor or competing ligand from its target) at human κOR stood at 3.1 ± 0.78 µM.

With `Cc1cc(F)ccc1/N=N/C(=O)NCC1(N(C)C)CCCCC1` [4b, (E)-N-((1-(Dimethylamino)cyclohexyl)methyl)-2-(4-fluoro-2-methylphenyl)diazene-1-carboxamide], the values for the inhibition constant Ki on human μOR and on human κOR were 4.9 ± 0.35 µM and 6.1 ± 1.8 µM, respectively.

Turning to `Cc1cc(/N=N/C(=O)NCC2(N(C)C)CCCCC2)ccc1F` [4c, (E)-N-((1-(Dimethylamino)cyclohexyl)methyl)-2-(4-fluoro-3-methylphenyl)diazene-1-carboxamide], on human μOR, the affinity, expressed as Ki, was 1.1 ± 0.35 µM; the “affinity for the μ-opioid receptor (in words)” value is “micromolar”; the “subtype selectivity Ki(δOR/μOR)” value is 27; the “subtype selectivity Ki(κOR/μOR)” value is reported as 4.4. For the same molecule, the inhibition constant Ki at human κOR was 4.8 ± 1.8 µM.

In the case of `COc1cc(F)ccc1/N=N/C(=O)NCC1(N(C)C)CCCCC1` [4d, (E)-N-((1-(Dimethylamino)cyclohexyl)methyl)-2-(4-fluoro-2-methoxyphenyl)diazene-1-carboxamide], the values for the Ki at human μOR, on human δOR and at human κOR were 7.4 ± 5.2 µM, 38 ± 38 µM and 7.2 ± 1.8 µM, respectively. Besides, the “selectivity between the κ and μ opioid receptor subtypes (in words)” value at human μOR is recorded as “did not show any selectivity”.

Turning to “(E)-N-((1-(Dimethylamino)cyclohexyl)methyl)-2-(4-fluorobiphen-2-yl)diazene-1-carboxamide [4e]”, the Ki on human μOR (read-out: Ki μOR) is 2.1 ± 0.57 µM; at human κOR (read-out: Ki κOR), 4.8 ± 1.3 µM.
